Results published in the NIST ThermoML archive (doi:10.1016/j.jct.2017.06.001).

Test: xn = mol fraction of the nth substance listed
Conditions: 100 kPa, Liquid; for speed of sound: Frequency=5 MHz, Pulse-echo method; for mass density: Vibrating tube method

OCCCCCO [1,5-pentanediol] + O
Conditions	mass density [kg/m3]	speed of sound [m/s]
313.15 K, x1 = 0.005	991.7	–
313.15 K, x1 = 0.0101	991.52	–
313.15 K, x1 = 0.0196	991.54	–
313.15 K, x1 = 0.0251	991.82	–
313.15 K, x1 = 0.0304	992.13	–
313.15 K, x1 = 0.05	992.81	–
313.15 K, x1 = 0.0769	993.24	–
313.15 K, x1 = 0.1002	993.63	–
313.15 K, x1 = 0.1124	–	1653.6
313.15 K, x1 = 0.1158	–	1654.3
313.15 K, x1 = 0.1193	–	1654.9
313.15 K, x1 = 0.1244	–	1655.7
313.15 K, x1 = 0.1287	–	1656.2
313.15 K, x1 = 0.1321	–	1656.6
313.15 K, x1 = 0.1361	–	1656.9
313.15 K, x1 = 0.1413	–	1657.3
313.15 K, x1 = 0.1438	993.61	–
313.15 K, x1 = 0.1453	–	1657.5
313.15 K, x1 = 0.1493	–	1657.7
313.15 K, x1 = 0.1538	–	1657.8
313.15 K, x1 = 0.1569	–	1657.8
313.15 K, x1 = 0.1592	–	1657.9
313.15 K, x1 = 0.1624	–	1657.9
313.15 K, x1 = 0.1645	–	1657.9
313.15 K, x1 = 0.1677	–	1657.8
313.15 K, x1 = 0.1703	–	1657.8
313.15 K, x1 = 0.174	–	1657.7
313.15 K, x1 = 0.1785	–	1657.6
313.15 K, x1 = 0.1796	–	1657.5
313.15 K, x1 = 0.1845	993.02	–
313.15 K, x1 = 0.1854	–	1657.3
313.15 K, x1 = 0.1882	–	1657.2
313.15 K, x1 = 0.1986	–	1656.6
313.15 K, x1 = 0.2089	–	1656
313.15 K, x1 = 0.2219	–	1655
313.15 K, x1 = 0.2336	–	1654.1
313.15 K, x1 = 0.2458	–	1653
313.15 K, x1 = 0.2503	991.87	–
313.15 K, x1 = 0.2586	–	1651.8
313.15 K, x1 = 0.2742	–	1650.3
313.15 K, x1 = 0.2871	–	1649
313.15 K, x1 = 0.3	990.74	–
313.15 K, x1 = 0.3037	–	1647.3
313.15 K, x1 = 0.3173	–	1645.8
313.15 K, x1 = 0.3343	989.99	–
313.15 K, x1 = 0.3466	–	1642.6
313.15 K, x1 = 0.366	–	1640.3
313.15 K, x1 = 0.3864	–	1637.9
313.15 K, x1 = 0.401	–	1636.1
313.15 K, x1 = 0.4171	988.35	–
313.15 K, x1 = 0.4198	–	1633.7
313.15 K, x1 = 0.4339	–	1631.8
313.15 K, x1 = 0.4516	–	1629.5
313.15 K, x1 = 0.454	987.5	–
313.15 K, x1 = 0.4639	–	1627.8
313.15 K, x1 = 0.4723	–	1626.7
313.15 K, x1 = 0.4915	–	1624
313.15 K, x1 = 0.5003	986.6	–
313.15 K, x1 = 0.5111	–	1621.3
313.15 K, x1 = 0.5315	–	1618.4
313.15 K, x1 = 0.5362	985.8	–
313.15 K, x1 = 0.5529	–	1615.4
313.15 K, x1 = 0.5804	–	1611.5
313.15 K, x1 = 0.602	–	1608.5
313.15 K, x1 = 0.6163	–	1606.5
313.15 K, x1 = 0.6177	984.4	–
313.15 K, x1 = 0.6349	–	1604
313.15 K, x1 = 0.6478	983.9	–
313.15 K, x1 = 0.6533	–	1601.5
313.15 K, x1 = 0.6749	–	1598.6
313.15 K, x1 = 0.6932	–	1596.3
313.15 K, x1 = 0.7025	983	–
313.15 K, x1 = 0.7095	–	1594.2
313.15 K, x1 = 0.7237	–	1592.4
313.15 K, x1 = 0.7448	–	1589.9
313.15 K, x1 = 0.7504	982.3	–
313.15 K, x1 = 0.7666	–	1587.3
313.15 K, x1 = 0.7927	981.6	–
313.15 K, x1 = 0.794	–	1584.1
313.15 K, x1 = 0.8188	–	1581.3
313.15 K, x1 = 0.8485	–	1578
313.15 K, x1 = 0.8605	980.4	–
313.15 K, x1 = 0.875	–	1575.1
313.15 K, x1 = 0.9004	979.7	–
313.15 K, x1 = 0.9027	–	1572.1
313.15 K, x1 = 0.9251	–	1569.5
313.15 K, x1 = 0.9471	–	1566.9
313.15 K, x1 = 0.9496	978.8	–
313.15 K, x1 = 0.9652	–	1564.7
313.15 K, x1 = 0.9777	–	1563.1
313.15 K, x1 = 0.9877	–	1561.8
313.15 K, x1 = 0.9953	–	1560.8
313.15 K, x1 = 1	977.8	1560.2
318.15 K, x1 = 0.0005	–	1538
318.15 K, x1 = 0.0015	–	1540.6
318.15 K, x1 = 0.0027	–	1543.4
318.15 K, x1 = 0.0039	–	1546.4
318.15 K, x1 = 0.0049	–	1548.8
318.15 K, x1 = 0.0058	–	1550.9
318.15 K, x1 = 0.0069	–	1553.4
318.15 K, x1 = 0.008	–	1556
318.15 K, x1 = 0.0092	–	1558.5
318.15 K, x1 = 0.0106	–	1561.6
318.15 K, x1 = 0.0116	–	1563.7
318.15 K, x1 = 0.0129	–	1566.4
318.15 K, x1 = 0.0141	–	1568.7
318.15 K, x1 = 0.0154	–	1571.2
318.15 K, x1 = 0.0168	–	1573.9
318.15 K, x1 = 0.0184	–	1576.8
318.15 K, x1 = 0.0196	–	1578.9
318.15 K, x1 = 0.0215	–	1582.2
318.15 K, x1 = 0.0231	–	1584.8
318.15 K, x1 = 0.0246	–	1587.2
318.15 K, x1 = 0.0263	–	1589.8
318.15 K, x1 = 0.0283	–	1592.8
318.15 K, x1 = 0.0298	–	1594.9
318.15 K, x1 = 0.0316	–	1597.5
318.15 K, x1 = 0.0337	–	1600.2
318.15 K, x1 = 0.0357	–	1602.8
318.15 K, x1 = 0.0378	–	1605.4
318.15 K, x1 = 0.0403	–	1608.2
318.15 K, x1 = 0.043	–	1611.2
318.15 K, x1 = 0.0456	–	1613.9
318.15 K, x1 = 0.0487	–	1616.8
318.15 K, x1 = 0.0503	–	1618.2
318.15 K, x1 = 0.0516	–	1619.4
318.15 K, x1 = 0.0548	–	1622.1
318.15 K, x1 = 0.0584	–	1624.9
318.15 K, x1 = 0.0657	–	1629.8
318.15 K, x1 = 0.0682	–	1631.3
318.15 K, x1 = 0.072	–	1633.3
318.15 K, x1 = 0.0763	–	1635.4
318.15 K, x1 = 0.0796	–	1636.9
318.15 K, x1 = 0.0848	–	1639
318.15 K, x1 = 0.0893	–	1640.5
318.15 K, x1 = 0.0963	–	1642.5
318.15 K, x1 = 0.1022	–	1643.9
318.15 K, x1 = 0.1063	–	1644.7
318.15 K, x1 = 0.1107	–	1645.4
318.15 K, x1 = 0.1147	–	1646
318.15 K, x1 = 0.1186	–	1646.4
318.15 K, x1 = 0.1227	–	1646.8
318.15 K, x1 = 0.1267	–	1647.1
318.15 K, x1 = 0.1324	–	1647.4
318.15 K, x1 = 0.138	–	1647.6
318.15 K, x1 = 0.1421	–	1647.7
318.15 K, x1 = 0.1467	–	1647.7
318.15 K, x1 = 0.151	–	1647.7
318.15 K, x1 = 0.1559	–	1647.6
318.15 K, x1 = 0.1604	–	1647.4
318.15 K, x1 = 0.1642	–	1647.3
318.15 K, x1 = 0.1668	–	1647.1
318.15 K, x1 = 0.17	–	1647
318.15 K, x1 = 0.1746	–	1646.7
318.15 K, x1 = 0.1759	–	1646.6
318.15 K, x1 = 0.1805	–	1646.3
318.15 K, x1 = 0.1834	–	1646.1
